From publication PMC5971037, “Synthesis and evaluation of antimicrobial, antitubercular and anticancer activities of 2-(1-benzoyl-1H-benzo[d]imidazol-2-ylthio)-N-substituted acetamides” (Chemistry Central Journal, 2018)
Converted amounts (≈) assume the structure as drawn.

Legend:
A. niger [1] = experiment: microbe, parasite or virus in culture; conditions: Aspergillus niger, 168 h, read-out: MIC A. niger
[2] = system: MCF7 (human breast cancer) cell line; experiment: Sulforhodamine-B (SRB) cytotoxicity assay; type: cell-based; conditions: MCF7, read-out: IC50 MCF7
B. cereus [3] = experiment: Tube dilution MIC; conditions: Bacillus cereus, 24 h, read-out: MIC B. cereus
S. typhi [4] = experiment: Tube dilution MIC; type: cell-based; conditions: Salmonella enterica, 24 h, read-out: MIC S. typhi
[5] = In vivo LD50, ED50 and toxic dose in mice models; conditions: mouse, dose that killed 50% of the mice population within the group
Method: The LD50 and ED50 were determined for the active compounds in mice models infected with Mycobacterium H37Rv (Table 4). […] Thus, ED50 of 1.34 mg/kg was considered safe for each of the compounds. It was observed that this dose was effective and safe for mice in different groups before infecting the mice models with specific TB bacteria as no mortality of any single animal was recorded.
The LD50 (lethal dose) and ED50 (optimum/effective dose) doses were determined for the active compounds in mice models infected with Mycobacterium H37Rv via ethical permission no., NCFT/EC/16/2313 assigned to Collaborative Research Group (CRG), NCFT, New Delhi, India.

M. tuberculosis H37Rv [6] = experiment: Minimum lethal concentration (MLC); type: cell-based; conditions: Mycobacterium tuberculosis, NA = no activity, read-out: MLC against M. tuberculosis H37Rv
C. albicans [7] = experiment: microbe, parasite or virus in culture; conditions: Candida albicans, 48 h, read-out: MIC C. albicans
B. subtilis [8] = experiment: Tube dilution MIC; conditions: Bacillus subtilis, 24 h, read-out: MIC B. subtilis
A. niger [9] = experiment: MFC by subculturing; type: cell-based; conditions: Aspergillus niger, read-out: MFC A. niger
Method: (§1) The minimum bactericidal concentration (MBC) and minimum fungicidal concentration (MFC) of the synthesized benzimidazole derivatives was determined by subculturing 100 µl of culture from each tube that remained clear in MIC determination onto sterilized petri-plates containing fresh agar medium. The petri-plates were incubated and analyzed for microbial growth visually.

C. albicans [10] = experiment: MFC by subculturing; type: cell-based; conditions: Candida albicans, read-out: MFC C. albicans
Method: as §1

S. aureus [11] = experiment: MBC by subculturing; type: cell-based; conditions: Staphylococcus aureus
Method: as §1

B. cereus [12] = experiment: MBC by subculturing; type: cell-based; conditions: Bacillus cereus, read-out: MBC B. cereus
Method: as §1

E. coli [13] = experiment: MBC by subculturing; type: cell-based; conditions: Escherichia coli
Method: as §1

B. subtilis [14] = experiment: MBC by subculturing; type: cell-based; conditions: Bacillus subtilis, read-out: MBC B. subtilis
Method: as §1

S. typhi [15] = experiment: MBC by subculturing; type: cell-based; conditions: Salmonella enterica, read-out: MBC S. typhi
Method: as §1

S. aureus [16] = experiment: Tube dilution MIC; conditions: Staphylococcus aureus, 24 h, read-out: MIC S. aureus
E. coli [17] = experiment: Tube dilution MIC; conditions: Escherichia coli, 24 h, read-out: MIC E. coli
[18] = system: HCT116 (human colorectal) cell line; experiment: Sulforhodamine-B (SRB) cytotoxicity assay; type: cell-based; conditions: HCT-116, read-out: IC50 HCT116
[19] = system: M. tuberculosis H37Rv (NCFT/TB/537); experiment: Well diffusion susceptibility test (zone of inhibition); type: cell-based; conditions: Mycobacterium tuberculosis, 672 h, read-out: Diameter of zone of inhibition against H37Rv (NCFT/TB/537), wells of 8 mm, 50 µg/ml test compound, 25 µg/ml standard drug, 4 weeks, NA = no activity
M. tuberculosis H37Rv [20] = experiment: MIC by microplate alamar blue assay; type: cell-based; conditions: Mycobacterium tuberculosis, NA = no activity, read-out: MIC against M. tuberculosis H37Rv
[21] = biological target: mycobacterial isocitrate lyase (Mycobacterium tuberculosis, UniProt P9WKK7); experiment: Mycobacterial isocitrate lyase (ICL) assay; type: biochemical, M. tuberculosis H37Rv; conditions: read-out: Percent inhibition of enzyme, M. ICL activity
Method: The compounds found potent in in vivo evaluation were assayed for inhibition of mycobacterial enzymes viz., isocitrate lyase, pantothenate synthetase and chorismate mutase.
Isocitrate lyase activity was assayed according to the protocol reported by Dixon and Kornberg (glyoxylate phenyl hydrazone formation) at 10 μM of the compounds.

Sequence of mycobacterial isocitrate lyase (P9WKK7 whole entry): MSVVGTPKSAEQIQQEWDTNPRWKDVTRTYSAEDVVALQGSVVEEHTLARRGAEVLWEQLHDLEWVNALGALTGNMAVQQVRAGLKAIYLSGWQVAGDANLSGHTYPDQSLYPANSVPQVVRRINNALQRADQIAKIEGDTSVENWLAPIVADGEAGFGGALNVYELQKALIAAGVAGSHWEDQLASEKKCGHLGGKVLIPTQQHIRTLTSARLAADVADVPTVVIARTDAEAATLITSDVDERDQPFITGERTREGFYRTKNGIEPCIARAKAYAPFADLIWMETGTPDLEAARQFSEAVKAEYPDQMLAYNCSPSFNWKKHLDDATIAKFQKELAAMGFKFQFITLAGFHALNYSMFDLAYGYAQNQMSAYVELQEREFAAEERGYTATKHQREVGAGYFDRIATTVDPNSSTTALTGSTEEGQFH

SMILES	MIC (A. niger [1]) [µM]	IC50 [2] [µM]	MIC (B. cereus [3]) [µM]	MIC (S. typhi [4]) [µM]	LD50 [5] [mg/kg]	MBC (M. tuberculosis H37Rv [6]) [µg/mL]	MIC (C. albicans [7]) [µM]	MIC (B. subtilis [8]) [µM]	MFC (A. niger [9]) [µg/mL]	MFC (C. albicans [10]) [µg/mL]	MBC (S. aureus [11]) [µg/mL]	MBC (B. cereus [12]) [µg/mL]	MBC (E. coli [13]) [µg/mL]	MBC (B. subtilis [14]) [µg/mL]	MBC (S. typhi [15]) [µg/mL]	MIC (S. aureus [16]) [µM]	MIC (E. coli [17]) [µM]	zone of inhibition at 50 µg/mL [19] [mm]	MIC (M. tuberculosis H37Rv [20]) [µg/mL]	inhibition at 10 µM [21] [%]	other results
O=C(CSc1nc2ccccc2n1C(=O)c1ccccc1)Nc1ccccc1 [Compound 1]	32 (≈ 12.4 µg/mL)	77.4	32 (≈ 12.4 µg/mL)	32 (≈ 12.4 µg/mL)	1.83	25 (≈ 64.5 µM)	32 (≈ 12.4 µg/mL)	32 (≈ 12.4 µg/mL)	> 50	50 (≈ 129 µM)	50 (≈ 129 µM)	> 50	50 (≈ 129 µM)	> 50	50 (≈ 129 µM)	32 (≈ 12.4 µg/mL)	32 (≈ 12.4 µg/mL)	> 20	12.5 (≈ 32.3 µM)	62.2	IC50 [18]: > 258 µM
O=C(CSc1nc2ccccc2n1C(=O)c1ccccc1)Nc1ccccc1F [Compound 2, 2-(1-Benzoyl-1H-benzo[d]imidazol-2-ylthio)-N-(2-fluorophenyl)acetamide]	31 (≈ 12.6 µg/mL)	4.7	31 (≈ 12.6 µg/mL)	31 (≈ 12.6 µg/mL)	1.81	25 (≈ 61.7 µM)	15 (≈ 6.08 µg/mL)	31 (≈ 12.6 µg/mL)	> 50	50 (≈ 123 µM)	> 50	> 50	50 (≈ 123 µM)	50 (≈ 123 µM)	50 (≈ 123 µM)	31 (≈ 12.6 µg/mL)	31 (≈ 12.6 µg/mL)	> 20	12.5 (≈ 30.8 µM)	58.8	IC50 [18]: 83.9 µM
O=C(CSc1nc2ccccc2n1C(=O)c1ccccc1)Nc1ccc(F)cc1 [Compound 3, 2-(1-Benzoyl-1H-benzo[d]imidazol-2-ylthio)-N-(4-fluorophenyl)acetamide]	31 (≈ 12.6 µg/mL)	24.7	31 (≈ 12.6 µg/mL)	31 (≈ 12.6 µg/mL)	1.87	25 (≈ 61.7 µM)	15 (≈ 6.08 µg/mL)	31 (≈ 12.6 µg/mL)	> 50	25 (≈ 61.7 µM)	> 50	> 50	50 (≈ 123 µM)	> 50	> 50	31 (≈ 12.6 µg/mL)	31 (≈ 12.6 µg/mL)	> 20	12.5 (≈ 30.8 µM)	52.6	IC50 [18]: 197 µM
O=C(CSc1nc2ccccc2n1C(=O)c1ccccc1)Nc1ccccc1Cl [Compound 4, 2-(1-Benzoyl-1H-benzo[d]imidazol-2-ylthio)-N-(2-chlorophenyl)acetamide]	30 (≈ 12.7 µg/mL)	35.6	30 (≈ 12.7 µg/mL)	30 (≈ 12.7 µg/mL)	1.96	25 (≈ 59.3 µM)	15 (≈ 6.33 µg/mL)	30 (≈ 12.7 µg/mL)	> 50	25 (≈ 59.3 µM)	50 (≈ 119 µM)	> 50	50 (≈ 119 µM)	> 50	50 (≈ 119 µM)	30 (≈ 12.7 µg/mL)	30 (≈ 12.7 µg/mL)	> 20	12.5 (≈ 29.6 µM)	48.5	IC50 [18]: 59.4 µM
O=C(CSc1nc2ccccc2n1C(=O)c1ccccc1)Nc1cc(Cl)ccc1Cl [Compound 6, 2-(1-Benzoyl-1H-benzo[d]imidazol-2-ylthio)-N-(2,5-dichlorophenyl)acetamide]	27 (≈ 12.3 µg/mL)	89.8	27 (≈ 12.3 µg/mL)	27 (≈ 12.3 µg/mL)	1.86	25 (≈ 54.8 µM)	14 (≈ 6.39 µg/mL)	27 (≈ 12.3 µg/mL)	> 50	50 (≈ 110 µM)	> 50	> 50	> 50	> 50	25 (≈ 54.8 µM)	27 (≈ 12.3 µg/mL)	27 (≈ 12.3 µg/mL)	> 20	12.5 (≈ 27.4 µM)	56.8	IC50 [18]: 83.3 µM
O=C(CSc1nc2ccccc2n1C(=O)c1ccccc1)Nc1cccc([N+](=O)[O-])c1 [Compound 10, 2-(1-Benzoyl-1H-benzo[d]imidazol-2-ylthio)-N-(3-nitrophenyl)acetamide]	29 (≈ 12.5 µg/mL)	78.6	29 (≈ 12.5 µg/mL)	29 (≈ 12.5 µg/mL)	1.83	25 (≈ 57.8 µM)	15 (≈ 6.49 µg/mL)	29 (≈ 12.5 µg/mL)	> 50	> 50	50 (≈ 116 µM)	> 50	> 50	50 (≈ 116 µM)	50 (≈ 116 µM)	29 (≈ 12.5 µg/mL)	29 (≈ 12.5 µg/mL)	> 20	12.5 (≈ 28.9 µM)	61.2	IC50 [18]: 5.8 µM
COc1ccc(NC(=O)CSc2nc3ccccc3n2C(=O)c2ccccc2)cc1 [Compound 18, 2-(1-Benzoyl-1H-benzo[d]imidazol-2-ylthio)-N-(4-methoxyphenyl)acetamide]	30 (≈ 12.5 µg/mL)		30 (≈ 12.5 µg/mL)	30 (≈ 12.5 µg/mL)	3.15	25 (≈ 59.9 µM)	15 (≈ 6.26 µg/mL)	30 (≈ 12.5 µg/mL)	> 50	50 (≈ 120 µM)	> 50	> 50	50 (≈ 120 µM)	> 50	> 50	30 (≈ 12.5 µg/mL)	30 (≈ 12.5 µg/mL)	> 20	12.5 (≈ 29.9 µM)	64.6	
